Experimental data taken from patent publication US5147878A, “Aminoalkoxyphenyl derivatives, process of preparation and compositions containing the same” (Sanofi, priority 1986, dated 1992).
Counter-ions that a name gives are not always drawn.

How the values were obtained:
[1] = system: isoprenaline-induced acceleration in heart rate (anti-β effect); assay: Antiadrenergic properties: anti-β effect (reduction of isoprenaline-induced tachycardia); format: in vivo; parameters: key to anti-β effect: +: for a reduction < 50%; ++: for a reduction ≥ 50%; +++: for a reduction sub-total (almost complete reduction); settings: dog; for inhibition in vivo at 10 mg/kg: 10 mg/kg i.v., known compounds; for inhibition in vivo at 1 mg/kg: 1 mg/kg i.v.; for anti-β effect: 0.1 mg/kg i.v.; for inhibition in vivo at 0.5 mg/kg: 0.5 mg/kg i.v.
Method: The object of this test is to determine the capacity of the compounds of the invention for reducing the increase in epinephrine-induced increase in blood-pressure (anti-α effect) and the isoprenaline-induced acceleration in heart rate (anti-β effect), in dogs previously anaesthatized with pentobarbital and atropinized. For each dog, the dose of epinephrine (between 3 and 10 μg/kg) which induced a reproducible increase in the blood-pressure of approximately 133×10^2 Pa and the dose of isoprenaline (1 to 2 μg/kg) which induced a reproducible increase in the heart rate of approximately 70 beats/min. were first determined. The dose of epinephrine and of isoprenaline, determined in this manner, were injected alternately every ten minutes and, after two successive reference responses had been obtained, an amount of the test compound was administered intravenously. The percentage reduction in the acceleration of the heart rate induced by the test compound compared with the reference tachycardia measured previously (approximately 70 beats) was recorded. In both cases, the results of the reduction in blood-pressure or in the heart rate have been expressed as follows: […]

isolated rat aorta = assay: Calcium inhibitory properties: contractile response to potassium-induced depolarization on isolated rat aorta; parameters: species or system isolated organ, male Wistar rats; settings: for activity at 1 µM / activity at 0.1 µM / activity at 0.01 µM / activity at 0.001 µM: Rattus norvegicus, 1 h, read-out: % of the maximum contractional effect; for activity at 1 µM: 10^-6 M; for activity at 0.1 µM: 10^-7 M; for activity at 0.01 µM: 10^-8 M; for activity at 0.001 µM: 10^-9 M; for % of the maximum contractional effect: head printed "10^-" (exponent missing; first of three columns before 10^-6 M), 60 min
Method in brief: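 Contraction is expressed as % of the pre-incubation maximum, measured after a 60 min compound exposure and a fresh K+ (100 mM KCl) depolarization. Tissue: aortic strips from male Wistar rats, 2 g tension, modified Krebs-bicarbonate, 37° C, CO2/O2 gassed.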

[2] = system: epinephrine-induced increase in blood-pressure (anti-α effect); assay: Antiadrenergic properties: anti-α effect (reduction of epinephrine-induced hypertension); format: in vivo; parameters: key to anti-α effect: +: for a reduction < 50%; ++: for a reduction ≥ 50%; +++: for a reduction sub-total (almost complete reduction); settings: dog; for inhibition in vivo at 10 mg/kg: 10 mg/kg i.v., known compounds
Method: The object of this test is to determine the capacity of the compounds of the invention for reducing the increase in epinephrine-induced increase in blood-pressure (anti-α effect) and the isoprenaline-induced acceleration in heart rate (anti-β effect), in dogs previously anaesthatized with pentobarbital and atropinized. For each dog, the dose of epinephrine (between 3 and 10 μg/kg) which induced a reproducible increase in the blood-pressure of approximately 133×10^2 Pa and the dose of isoprenaline (1 to 2 μg/kg) which induced a reproducible increase in the heart rate of approximately 70 beats/min. were first determined. The dose of epinephrine and of isoprenaline, determined in this manner, were injected alternately every ten minutes and, after two successive reference responses had been obtained, an amount of the test compound was administered intravenously. The percentage reduction in the hypertension induced by the test compound compared with the reference hypertension previously obtained (approximately 100 mm Hg) was recorded. In both cases, the results of the reduction in blood-pressure or in the heart rate have been expressed as follows: […]

[3] = Canis lupus familiaris, iv, 11.2 mg/kg i.v.
[4] = Canis lupus familiaris, iv, 0.52 mg/kg i.v.

Row | Compound | activity at 1 µM (isolated rat aorta) [%] | activity at 0.1 µM (isolated rat aorta) [%] | activity at 0.01 µM (isolated rat aorta) [%] | also measured
1 | CCCc1sc2ccccc2c1S(=O)(=O)c1ccc(OCCCN(C)CCc2ccc(OC)c(OC)c2)cc1 [Ex. 68, 2-n-Propyl-3-[4-{3-[N-methyl-N-(3,4-dimethoxy-β-phenethyl)amino]propyloxy}benzenesulphonyl]benzothiophene hemioxalate] | 9.7 | 45.3 | 68.9 | inhibition in vivo at 0.6 mg/kg ([1]; Canis lupus familiaris, iv, 0.6 mg/kg i.v.): ≥ 50%; anti-α effect ([2]; 0.6 mg/kg i.v.): +++
2 | CCCN(CCC)CCCOc1ccc(S(=O)(=O)c2c(C(C)C)cn3ccccc23)cc1 [Ex. 17, 2-Isopropyl-1-{4-[3-(di-n-propylamino)propyloxy]benzenesulphonyl}indolizineoxalate] | 7.4 | 50.4 | – | inhibition in vivo at 1.3 mg/kg ([1]; Canis lupus familiaris, iv, 1.3 mg/kg i.v.): ≥ 50%; anti-α effect ([2]; 1.3 mg/kg i.v.): +++
3 | CCCN(CCC)CCCOc1ccc(C(=O)c2c(CC)cn3ccccc23)cc1 [Compound E, reference compound] | 37.9 | 89.1 | – | inhibition in vivo at 10 mg/kg ([1]; Canis lupus familiaris, iv): ≥ 50%; inhibition in vivo at 10 mg/kg ([2]; Canis lupus familiaris, iv): < 50%
4 | COc1cc(CCN(C)CCCOc2ccc(S(=O)(=O)c3c(C(C)C)c4ccccc4n3C)cc2)cc(OC)c1 [Ex. 146, 1-methyl-3-isopropyl-2-[4-{3-[N-methyl-N-(3,5-dimethoxy-β-phenethyl)amino]propyloxy}benzenesulphonyl]indole acid oxalate] | – | – | – | inhibition in vivo at 0.07 mg/kg ([1]; Canis lupus familiaris, iv, 0.07 mg/kg i.v.): ≥ 50%; anti-α effect ([2]; 0.07 mg/kg i.v.): +++
5 | CCCCN(CCCC)CC(O)COc1ccc(S(=O)(=O)c2c(C(C)C)cn3ccccc23)cc1.Cl (centres unmarked) [Ex. 49, 2-isopropyl-1-{4-[3-(di-n-butylamino)-2-hydroxypropyloxy]-benzenesulphonyl}indolizine hydrochloride] | 5.4 | 12.8 | 67.6 | inhibition in vivo at 1 mg/kg ([1]; Canis lupus familiaris, iv): ≥ 50%; activity at 0.001 µM (isolated rat aorta): 80.2%; anti-α effect ([2]; 1 mg/kg i.v.): +++
6 | CCc1cn2ccccc2c1S(=O)(=O)c1ccc(OCCCNCCc2ccc(OC)c(OC)c2)cc1 [Ex. 27, 2-Ethyl-1-{4-}3-(3,4-dimethoxy-β-phenethylamino)propyloxy]benzenesulphonyl}indolizine oxalate] | – | 7.7 | 58.9 | inhibition in vivo at 1 mg/kg ([1]; Canis lupus familiaris, iv): ≥ 50%; activity at 0.001 µM (isolated rat aorta): 81.6%; anti-α effect ([2]; 1 mg/kg i.v.): +++
7 | COc1ccc(CCN(C)CCCOc2ccc(S(=O)(=O)c3ccoc3C(C)C)cc2)cc1OC [Ex. 77, 2-isopropyl-3-[4-{3-[N-methyl-N-(3,4-dimethoxy-β-phenethyl)amino]propyloxy}benzenesulphonyl]furan oxalate] | – | 43.2 | 86 | inhibition in vivo at 3 mg/kg ([1]; Canis lupus familiaris, iv, 3 mg/kg i.v.): ≥ 50%; activity at 0.001 µM (isolated rat aorta): 89.8%; anti-α effect ([2]; 3 mg/kg i.v.): +++
8 | COc1cccc(CCN(C)CCCOc2ccc(S(=O)(=O)c3c(C(C)C)cn4ccccc34)cc2)c1 [Ex. 46, 2-Isopropyl-1-[4-{3-[N-methyl-N-(3-methoxy-β-phenethyl)amino]propyloxy}benzenesulphonyl]indolizine acid oxalate] | – | 4.3 | 49.5 | anti-β effect [1]: +++; activity at 0.001 µM (isolated rat aorta): 78.1%; anti-α effect ([2]; 0.1 mg/kg i.v.): +++
9 | COc1ccc(CCN(C)CCCOc2ccc(S(=O)(=O)c3ccccn3)cc2)cc1OC [Ex. 59, 2-[4-{3-[N-methyl-N-(3,4-dimethoxy-β-phenethyl)amino]propyloxy}benzenesulphonyl]pyridine oxalate] | 81.7 | 87.5 | – | inhibition in vivo at 11.2 mg/kg [1, 3]: ≥ 50%; % of the maximum contractional effect (isolated rat aorta): 33.3%; inhibition in vivo at 11.2 mg/kg [2, 3]: ≥ 50%
10 | CCCCN(CCCC)CCCOc1ccc(S(=O)(=O)c2c(CC)cn3ccccc23)cc1 [Ex. 8, 2-Ethyl-1-{4-[3-(di-n-butylamino)propyloxy]benzenesulphonyl}indolizine hydrochloride] | – | 30.9 | – | inhibition in vivo at 0.5 mg/kg ([1]; Canis lupus familiaris, iv): < 50%; inhibition in vivo at 0.5 mg/kg ([2]; Canis lupus familiaris, iv, 0.5 mg/kg i.v.): ≥ 50%
11 | CCCCc1oc2ccccc2c1S(=O)(=O)c1ccc(OCCN(CC)CC)cc1 [Compound A, reference compound] | 25 | 60.3 | 84.3 | inhibition in vivo at 10 mg/kg ([1]; Canis lupus familiaris, iv): 0%; inhibition in vivo at 10 mg/kg ([2]; Canis lupus familiaris, iv): < 50%
12 | CCCCCN(CCCCC)CCCOc1ccc(S(=O)(=O)c2c(CC)cn3ccccc23)cc1.Cl [Ex. 26, 2-Ethyl-1-{4-[3-(di-n-pentylamino)propyloxy}benzenesulphonyl}indolizine hydrochloride] | – | 42.9 | 82.9 | inhibition in vivo at 0.5 mg/kg ([1]; Canis lupus familiaris, iv): ≥ 50%; anti-α effect ([2]; 0.5 mg/kg i.v.): +++
13 | CC(C)c1nn2ccccc2c1S(=O)(=O)c1ccc(OCCCNC(C)(C)C)cc1 [Ex. 72, 2-isopropyl-3-{4-[3-(tertiobutylamino)propyloxy]benzenesulphonyl}pyrazolo[1,5-a]pyridine oxalate] | 13.2 | 66.5 | 84 | inhibition in vivo at 0.52 mg/kg [1, 4]: < 50%; inhibition in vivo at 0.52 mg/kg [2, 4]: ≥ 50%
14 | CCCCc1cn2ccccc2c1C(=O)c1ccc(OCCCN(CCCC)CCCC)cc1 [Compound C, reference compound] | 25 | 74.4 | – | inhibition in vivo at 10 mg/kg ([1]; Canis lupus familiaris, iv): 0%; inhibition in vivo at 10 mg/kg ([2]; Canis lupus familiaris, iv): < 50%
15 | COc1ccc(CCN(C)CC(O)COc2ccc(S(=O)(=O)c3c(C(C)C)cn4ccccc34)cc2)cc1OC (racemic) [Ex. 50, hydrochloride] | – | – | – | anti-β effect [1]: +++; anti-α effect ([2]; 0.1 mg/kg i.v.): +++
16 | CCCCN(CCCC)CCCCOc1ccc(S(=O)(=O)c2c(C(C)C)cn3ccccc23)cc1 [Ex. 39, 2-Isopropyl-1-{4-[4-(di-n-butylamino)butyloxy]benzenesulphonyl}indolizine] | – | 17.9 | 62.9 | –
17 | COc1ccc(CN(C)CCCOc2ccc(S(=O)(=O)c3c(C(C)C)cn4ccccc34)cc2)cc1OC [Ex. 41, 2-Isopropyl-1-[4-{3-[N-methyl-N-(3,4-dimethoxybenzyl)-amino]propyloxy}benzenesulphonyl]indolizine] | – | 5.3 | 26.1 | activity at 0.001 µM (isolated rat aorta): 70.9%
18 | COc1ccc(CN(C)CCCCOc2ccc(S(=O)(=O)c3c(C(C)C)oc4ccccc34)cc2)cc1OC [Ex. 92, 2-Isopropyl-3-[4-{4-[N-methyl-N-(3,4-dimethoxy-benzyl)amino]butyloxy}benzenesulphonyl]benzofuran hemioxalate] | 3.8 | 31.5 | 61 | activity at 0.001 µM (isolated rat aorta): 80.8%
19 | COc1ccc(CCN(C)CCCOc2ccc(S(=O)(=O)c3cc4ccccc4nn3)cc2)cc1OC [Ex. 81, 3-[4-{3-[N-methyl-N-(3,4-dimethoxy-β-phenethyl)amino]propyloxy}benzenesulphonyl]cinnoline oxalate] | 73.1 | 86.6 | – | % of the maximum contractional effect (isolated rat aorta): 19.2%
20 | CCCCN(CCCC)CCCOc1ccc(S(=O)(=O)c2cn[nH]c2C(C)C)cc1 [Ex. 125, 4-{4-[3-(di-n-butylamino)propyloxy]benzenesulphonyl}-5-isopropyl-pyrazole acid oxalate] | 79.3 | 90.4 | – | % of the maximum contractional effect (isolated rat aorta): 38.6%
21 | CCCCN(CCCC)CCCOc1ccc(C(=O)c2c(CC)cn3ccccc23)cc1 [Compound F, reference compound] | – | – | – | inhibition in vivo at 10 mg/kg ([1]; Canis lupus familiaris, iv): 0%
22 | CCCCN(CCCC)CCCOc1ccc(Sc2ccncc2)cc1.O=C(O)C(=O)O.O=C(O)C(=O)O [Ex. 56, 4-{4-[3-(di-n-butylamino)propyloxy]phenylthio}pyridine dioxalate] | 58 | 86.2 | – | % of the maximum contractional effect (isolated rat aorta): 2.6%
